Like-named read-outs stand apart in the source and are kept apart here.
Key:
Candida albicans KE-2 [1] = assay: Inhibition test against pseudomycelium formation of Candida albicans; assay type: cell-based; details: KE2, minimum effective concentration preventing typical pseudomycelium formation, Eagle-MEM + 20 % calf serum, 18 hours at 37 °C, read-out: Inhibitory Concentration of Pseudo-myselium Formation
Protocol: Candida albicans KE-2 was inoculated to Eagle-MEM medium (Nissan 2 made by Nissui Seiyaku, Ltd.) supplemented with 20 % calf serum so that its final inoculum of yeast cell might be 1 x 10^6 yeast cells per milliliter. The test compounds were added thereon in two fold dilution series. After incubation for 18 hours at 37 °C, the fungal growth in each drug concentration was smeared and fixed on a slide glass, and the presence or absence of the pseudomycelium formation was examined by a microscope following Giemsa staining. Minimum effective concentration was defined as the lowest concentration of the compound which prevented typical pseudomycelium formation.

Candida albicans KE-2 [2] = assay: Therapeutic effect against experimental candidiasis in mice; assay type: in vivo; details: KE2, po, 120 h, mouse survival ratio on the 5th day after infection, Jcl-ICR female mouse, 50 mg/kg orally three times (0, 4, 24 hours)
Protocol: After Candida albicans KE-2 was incubated on Sabouraud's glucose agar at 28 °C for 48 hr., it was suspended in Sabouraud's glucose broth and the cells ([…]) were injected to a tail vein of Jcl-ICR female mouse (4 weeks age; weight : 18 - 20 g). A suspension of the test compound in 2 % gum arabic was orally administered three times, immediately after infection of the yeast ( 0 hour), after 4 hours and after 24 hours, as a dosage of 50 mg/kg. Non-treated group was used as control. Each eight mice per group was used in control group and treated group. All the mice in control group died within 48 hr. after infection. Therapeutic effect of the test compound was judged by mouse survival ratio on the 5th day after infection.

[3] = system: Erysiphe graminis f. sp. tritici; assay: Control by seed-soaking: powdery mildew in wheat; assay type: in vivo
Protocol: (§1) The test compound was dissolved in 0.2 ml of acetone and suspended in demineralized distilled water containing a small amount of spreader, to a concentration of 500 ppm. The suspension was further diluted to one quarter dilution with demineralized distilled water (containing a small amount of spreader) to give a suspension in 125 ppm. All seeds of oats, wheat and cucumber were soaked in these suspensions at room temperature for an hour and then the seeds were air-dried.
(§2) The seeds as described above were sown in plastic pots (diameter : 9 cm). For rust and powdery mildews, the pots were kept in a glasshouse for 1 - 3 weeks until the seeds grew to young plants. The young oats (10 - 20 plants per pot) were inoculated by dusting with spores of Puccinia coronata, and the wheat (10 - 20 plants per pot) was also inoculated by spraying with spores of Erysiphe graminis f. sp. tritici, and the cucumber (1 plant per pot) was also inoculated by spraying with spore suspension of Sphaerotheca fuliginea. These inoculated plants were further kept in a glasshouse for 10 - 14 days until assessment. For damping-off, the treated seeds were sown in paper pots (diameter : 7.5 cm; depth : 6 cm) which contained soil infested with Rhizoctonia solani by mixing sterilized soil and pre-cultured fungus. Then the pots were kept in a humid glasshouse at 25 - 32 ^*C.
(§3) Damping-off was observed 15 days after sowing, and disease degree and control effect were obtained from the following equations. [formula] [formula] where diseased seedlings included damping-off and unemerged'seeds due to infection. For the foliar diseases, disease development was observed 10 - 14 days after inoculation of spores, and control effect was obtained by the following index.

Puccinia coronata = assay: Control by seed-soaking: crown rust in oats; assay type: in vivo
Protocol: as §1, §2, §3

Sphaerotheca fuliginea [4] = assay: Control of cucumber powdery mildew by foliar spray; assay type: in vivo; details: observed 10 days after inoculation; for Control Index Preventive Effect: inoculation 24 hr. after application; for Control Index Curative Effect: inoculation 24 hr. before application
Protocol: The test compound was dissolved in a small amount of acetone and suspended in demineralized distilled water containing a spreader, to a concentration of 7.8 ppm and 2.0 ppm. Young cucumber plants (c.v. Tsukuba-Shiroibo) of 2-leaf stage grown in pots were sprayed sufficiently with the suspension.
Spores of Sphaerotheca fuliginea cultured in cucumber plants were collected and suspended in distilled water. Inoculation was made by spraying with the spore suspension to the test plant of 24 hr. after application of the test compound (preventive control) or 24 hr. before application (curative control).
Development of the disease was observed 10 days after inoculation and control index was obtained as described in Experiment 3.

Rhizoctonia solani = assay: Control by seed-soaking: Rhizoctonia damping-off in cucumber; assay type: in vivo; details: 360 h, read-out: Control Index Rhizoctonia Damping-Off in Cucumber
Protocol: as §1, §2, §3

Sphaerotheca fuliginea [5] = assay: Control by seed-soaking: powdery mildew in cucumber; assay type: in vivo
Protocol: as §1, §2, §3

[6] = seed-soaking, 125 ppm, observed 15 days after sowing, control effect by equation
[7] = seed-soaking, 500 ppm, observed 15 days after sowing, control effect by equation

SMILES	minimal effective concentration (Candida albicans KE-2 [1])	responders at 50 mg/kg (Candida albicans KE-2 [2])	Control Index Preventive Effect (Sphaerotheca fuliginea [4]; foliar spray 2.0 ppm)	Control Index Curative Effect (Sphaerotheca fuliginea [4]; foliar spray 2.0 ppm)	Control Index Preventive Effect (Sphaerotheca fuliginea [4]; foliar spray 7.8 ppm)	Control Index Curative Effect (Sphaerotheca fuliginea [4]; foliar spray 7.8 ppm)	pest or weed control at 125 ppm (Rhizoctonia solani; [6])	pest or weed control at 500 ppm (Rhizoctonia solani; [7])	further results
CCCCc1cc(C(O)(Cn2cncn2)c2ccc(F)cc2F)no1 (stereo not shown) [Ia - 11]	0.04 µg/mL	50%	–	–	–	–	–	–	–
CC(C)(C)C(=O)C(Oc1ccc(Cl)cc1)n1cncn1 (stereo not shown) [Triadi-mefon, reference compound]	–	–	90 (Leaves covered with symptom between 4 % and 15 % area)	90 (Leaves covered with symptom between 4 % and 15 % area)	90 (Leaves covered with symptom between 4 % and 15 % area)	90 (Leaves covered with symptom between 4 % and 15 % area)	–	–	Control Index Powdery Mildew in Wheat ([3]; 125 ppm): 90 (Leaves covered with symptom between 4 % and 15 % area); Control Index Powdery Mildew in Wheat ([3]; 500 ppm): 100; Control Index Crown Rust in Oats (Puccinia coronata; 125 ppm): 50 (Leaves covered with symptom between 46 % and 65 % area); Control Index Crown Rust in Oats (Puccinia coronata; 500 ppm): 97 (Leaves covered with symptom less than 3 % area); pest or weed control at 125 ppm (Rhizoctonia solani): 34%; pest or weed control at 500 ppm (Rhizoctonia solani): 49%; Control Index Powdery Mildew in Cucumber (Sphaerotheca fuliginea [5]; 125 ppm): 0 (Leaves covered with symptom more than 66 %); Control Index Powdery Mildew in Cucumber (Sphaerotheca fuliginea [5]; 500 ppm): 70 (Leaves covered with symptom between 16 % and 45 % area)
CC(C)(C)c1cc(C(O)(Cn2cncn2)c2ccc(F)cc2F)no1 (stereo not shown) [Ia - 12]	0.31 µg/mL	–	–	–	–	–	–	–	–
Cc1cc(C(O)(Cn2ccnc2)c2ccc(F)cc2)no1 (stereo not shown) [Ia - 13, 1-(4-Fluorophenyl)-1-(5-methylisoxazol-3-yl)-2-(1H-imidazol-1-yl)ethanol]	0.63 µg/mL	–	–	–	–	–	–	–	–
Cc1cc(C(O)(Cn2cncn2)c2ccc(Cl)cc2Cl)no1 (stereo not shown) [Ia - 7]	0.02 µg/mL	–	90 (Leaves covered with symptom between 4 % and 15 % area)	97 (Leaves covered with symptom less than 3 % area)	100	100	92%	94%	Control Index Powdery Mildew in Wheat ([3]; 125 ppm): 70 (Leaves covered with symptom between 16 % and 45 % area); Control Index Powdery Mildew in Wheat ([3]; 500 ppm): 70 (Leaves covered with symptom between 16 % and 45 % area); Control Index Crown Rust in Oats (Puccinia coronata; 125 ppm): 70 (Leaves covered with symptom between 16 % and 45 % area); Control Index Crown Rust in Oats (Puccinia coronata; 500 ppm): 100
CCc1cc(C(O)(Cn2cncn2)c2ccc(F)cc2F)no1 (stereo not shown) [Ia - 10]	0.08 µg/mL	50%	–	–	–	–	–	–	–
Cc1cc(C(O)(Cn2cncn2)c2ccc(F)cc2F)no1 (stereo not shown) [Ia - 8]	0.08 µg/mL	50%	90 (Leaves covered with symptom between 4 % and 15 % area)	90 (Leaves covered with symptom between 4 % and 15 % area)	97 (Leaves covered with symptom less than 3 % area)	100	74%	94%	–
Cc1onc(C(O)(Cn2cncn2)c2ccc(F)cc2)c1Cl (stereo not shown) [Ib - 2]	1.25 µg/mL	–	–	–	–	–	60%	85%	–
Cc1cc(C(O)(Cn2cncn2)c2ccccc2)no1 (stereo not shown) [Ia - 9]	0.31 µg/mL	–	–	–	–	–	–	–	–
Cc1onc(C(O)(Cn2cncn2)c2ccccc2)c1Cl (stereo not shown) [Ib - 3]	1.25 µg/mL	–	–	–	–	–	–	–	–
Cc1onc(C(O)(Cn2cncn2)c2ccc(Cl)cc2)c1Cl (stereo not shown) [Ib - 1, 1-(4-Chlorophenyl)-1-(5-methyl-4-chloroisoxazol-3-yl)-2-(1H-1,2,4-triazol-1-yl)ethanol]	0.31 µg/mL	–	70 (Leaves covered with symptom between 16 % and 45 % area)	97 (Leaves covered with symptom less than 3 % area)	97 (Leaves covered with symptom less than 3 % area)	100	35%	88%	–
Cc1cc(C(O)(Cn2cncn2)c2ccc(Cl)cc2)no1 (stereo not shown) [Ia - 5]	0.02 µg/mL	87.5%	70 (Leaves covered with symptom between 16 % and 45 % area)	97 (Leaves covered with symptom less than 3 % area)	97 (Leaves covered with symptom less than 3 % area)	100	66%	94%	Control Index Powdery Mildew in Wheat ([3]; 125 ppm): 70 (Leaves covered with symptom between 16 % and 45 % area); Control Index Powdery Mildew in Wheat ([3]; 500 ppm): 100; Control Index Crown Rust in Oats (Puccinia coronata; 125 ppm): 50 (Leaves covered with symptom between 46 % and 65 % area); Control Index Crown Rust in Oats (Puccinia coronata; 500 ppm): 97 (Leaves covered with symptom less than 3 % area); Control Index Powdery Mildew in Cucumber (Sphaerotheca fuliginea [5]; 125 ppm): 0 (Leaves covered with symptom more than 66 %); Control Index Powdery Mildew in Cucumber (Sphaerotheca fuliginea [5]; 500 ppm): 70 (Leaves covered with symptom between 16 % and 45 % area)
OC(Cn1cncn1)(c1ccc(F)cc1)c1ccon1 (stereo not drawn) [Ia - 1, 1-(4-Fluorophenyl)-1-(isoxazol-3-yl)-2-(1H-1,2,4-triazol-l-yl)ethanol]	0.31 µg/mL	87.5%	–	–	–	–	71%	90%	Control Index Powdery Mildew in Wheat ([3]; 125 ppm): 70 (Leaves covered with symptom between 16 % and 45 % area); Control Index Powdery Mildew in Wheat ([3]; 500 ppm): 100; Control Index Crown Rust in Oats (Puccinia coronata; 125 ppm): 50 (Leaves covered with symptom between 46 % and 65 % area); Control Index Crown Rust in Oats (Puccinia coronata; 500 ppm): 90 (Leaves covered with symptom between 4 % and 15 % area); Control Index Powdery Mildew in Cucumber (Sphaerotheca fuliginea [5]; 125 ppm): 0 (Leaves covered with symptom more than 66 %); Control Index Powdery Mildew in Cucumber (Sphaerotheca fuliginea [5]; 500 ppm): 70 (Leaves covered with symptom between 16 % and 45 % area)
Cc1cc(C(O)(Cn2cncn2)c2ccc(F)cc2)no1 (stereo not shown) [Ia - 6]	0.16 µg/mL	–	–	–	–	–	54%	85%	–
